“And” between values parts separate entries of the source, which are not always exact repeats. Equal entries are not always repeated. ± gives the expanded uncertainty stated by the source.

Test in one series: not given
The following applies: 353.15 K; Liquid.
For the compound `CC(C)=O` [acetone], the “vapor or sublimation pressure” value is 215.16 ± 1.4 kPa and 215.04 ± 1.4 kPa and 216.82 ± 5.5 kPa.
Take `CCO` [ethanol]: the “vapor or sublimation pressure” value came out at 109.08 ± 0.72 kPa.
On the same count and under the same terms, the result for `CO` [methanol] reads 182.61 ± 1.2 kPa; that for `CC(C)O` [propan-2-ol], 92.26 ± 0.62 kPa and 91.99 ± 0.61 kPa.
Still for that read-out and setting: the result for `C1CCOC1` [tetrahydrofuran] reads 155.92 ± 1 kPa and 157.86 ± 1 kPa; that for `O` [water], 47.37 ± 0.58 kPa and 47.82 ± 0.58 kPa.

A further series is described as follows: activity coefficient (dimensionless); of the first substance listed, at infinite dilution; xn = mol fraction of the nth substance listed. The conditions noted are these: 353.15 K; 101.33 kPa; Liquid; Static method; x1 = 0.
On to `CC(C)=O` [acetone] + CCCC[n+]1ccn(C)c1.O=S(=O)([N-]S(=O)(=O)C(F)(F)F)C(F)(F)F, for which the activity coefficient came to 0.406 ± 0.01.
As for `CC(C)=O` [acetone] + CCn1cc[n+](C)c1.O=S(=O)([N-]S(=O)(=O)C(F)(F)F)C(F)(F)F, the activity coefficient was 0.438 ± 0.01.
`CC(C)=O` [acetone] + COP(=O)([O-])OC.Cn1cc[n+](C)c1: the activity coefficient came to 0.98 ± 0.01.
Regarding `CCO` [ethanol] + COP(=O)([O-])OC.Cn1cc[n+](C)c1, the activity coefficient is 0.115 ± 0.01.
For the compound `CO` [methanol] + COP(=O)([O-])OC.Cn1cc[n+](C)c1, the activity coefficient is 0.029 ± 0.01.
On the same count and under the same terms, the result for `CC(C)O` [propan-2-ol] + CCCC[n+]1ccn(C)c1.O=S(=O)([N-]S(=O)(=O)C(F)(F)F)C(F)(F)F reads 1.1 ± 0.01; that for `CC(C)O` [propan-2-ol] + CCn1cc[n+](C)c1.O=S(=O)([N-]S(=O)(=O)C(F)(F)F)C(F)(F)F, 1.42 ± 0.02.
Turning to `C1CCOC1` [tetrahydrofuran] + CCn1cc[n+](C)c1.O=S(=O)([N-]S(=O)(=O)C(F)(F)F)C(F)(F)F, the activity coefficient was 0.8 ± 0.01.
`C1CCOC1` [tetrahydrofuran] + COP(=O)([O-])OC.Cn1cc[n+](C)c1: the activity coefficient worked out at 3.21 ± 0.05.
On the same count and under the same terms, the result for `O` [water] + CCCC[n+]1ccn(C)c1.O=S(=O)([N-]S(=O)(=O)C(F)(F)F)C(F)(F)F reads 2.27 ± 0.03; that for `O` [water] + CCn1cc[n+](C)c1.O=S(=O)([N-]S(=O)(=O)C(F)(F)F)C(F)(F)F, 2.32 ± 0.04.
The same measure, in the same setting: under `O` [water] + COP(=O)([O-])OC.Cn1cc[n+](C)c1 stands 0.028 ± 0.01.

Values taken from the NIST ThermoML archive (doi:10.1016/j.fluid.2005.01.002).
